# Source: the supplement of paper PMC10307832
# Key:
# Assay in all cases: relative viability (nuclei count vs DMSO), 5 days (fraction); higher = more cells survive
# NCI-H322M = system: NCI-H322M
# Outline: (§1)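 Values are medians from duplicate plates. Each reflects relative viability, defined as the nuclei count of treated wells over that of vehicle wells. Lung cancer cell lines in 1536-well plates were pin-tool dosed one day after seeding with one drug alone or with a fixed anchor-drug dose plus five library-drug doses (not always all listed) in √10 steps, then fixed, stained and imaged at 4× after 5 days.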
# HOP-62 = system: HOP-62
# Outline: as §1
# HCC-44 = system: HCC-44
# Outline: as §1
# NCI-H520 = system: NCI-H520
# Outline: as §1
# NCI-H1651 = system: NCI-H1651
# Outline: as §1
# NCI-H23 = system: NCI-H23
# Outline: as §1
# LCLC-103H = system: LCLC-103H
# Outline: as §1
# NCI-H2085 = system: NCI-H2085
# Outline: as §1
# NCI-H838 = system: NCI-H838
# Outline: as §1
# ABC-1 = system: ABC-1
# Outline: as §1
# NCI-H1395 = system: NCI-H1395
# Outline: as §1
# NCI-H1666 = system: NCI-H1666
# Outline: as §1
# NCI-H647 = system: NCI-H647
# Outline: as §1
# NCI-H1993 = system: NCI-H1993
# Outline: as §1
# NCI-H661 = system: NCI-H661
# Outline: as §1
# CAL-12T = system: CAL-12T
# Outline: as §1
# COR-L23 = system: COR-L23
# Outline: as §1
# 201T = system: 201T
# Outline: as §1
# NCI-H2347 = system: NCI-H2347
# Outline: as §1
# NCI-H1355 = system: NCI-H1355
# Outline: as §1
# NCI-H2170 = system: NCI-H2170
# Outline: as §1
# NCI-H2228 = system: NCI-H2228
# Outline: as §1
# LC-2-ad = system: LC-2-ad
# Outline: as §1
smiles,measurement,setting,value
Cc1cnc(-c2cnc(NCCNc3ccc(C#N)cn3)nc2-c2ccc(Cl)cc2Cl)[nH]1 + Cc1nc(NC(=O)N2CCC[C@H]2C(N)=O)sc1-c1ccnc(C(C)(C)C(F)(F)F)c1 [Alpelisib] (partner 2 µM),relative viability,NCI-H322M; first compound 0.08 µM,0.773
same,relative viability,NCI-H322M; first compound 0.253 µM,0.754
same,relative viability,NCI-H322M; first compound 0.8 µM,0.709
same,relative viability,NCI-H322M; first compound 2.53 µM,0.733
same,relative viability,HOP-62; first compound 0.08 µM,1
same,relative viability,HOP-62; first compound 0.253 µM,0.902
same,relative viability,HOP-62; first compound 0.8 µM,0.958
same,relative viability,HOP-62; first compound 2.53 µM,1.14
same,relative viability,HCC-44; first compound 0.08 µM,0.853
same,relative viability,HCC-44; first compound 0.253 µM,0.768
same,relative viability,HCC-44; first compound 0.8 µM,0.823
same,relative viability,HCC-44; first compound 2.53 µM,0.926
same,relative viability,NCI-H520; first compound 0.08 µM,0.926
same,relative viability,NCI-H520; first compound 0.253 µM,0.791
same,relative viability,NCI-H520; first compound 0.8 µM,1.11
same,relative viability,NCI-H520; first compound 2.53 µM,1.04
same,relative viability,NCI-H1651; first compound 0.08 µM,1.08
same,relative viability,NCI-H1651; first compound 0.253 µM,0.903
same,relative viability,NCI-H1651; first compound 0.8 µM,0.965
same,relative viability,NCI-H1651; first compound 2.53 µM,0.991
same,relative viability,NCI-H23; first compound 0.08 µM,0.819
same,relative viability,NCI-H23; first compound 0.253 µM,0.591
same,relative viability,NCI-H23; first compound 0.8 µM,0.818
same,relative viability,NCI-H23; first compound 2.53 µM,0.72
same,relative viability,LCLC-103H; first compound 0.08 µM,1.16
same,relative viability,LCLC-103H; first compound 0.253 µM,0.958
same,relative viability,LCLC-103H; first compound 0.8 µM,1.07
same,relative viability,LCLC-103H; first compound 2.53 µM,0.951
same,relative viability,NCI-H2085; first compound 0.08 µM,1.13
same,relative viability,NCI-H2085; first compound 0.253 µM,1.03
same,relative viability,NCI-H2085; first compound 0.8 µM,0.94
same,relative viability,NCI-H2085; first compound 2.53 µM,0.961
same,relative viability,NCI-H838; first compound 0.08 µM,1.06
same,relative viability,NCI-H838; first compound 0.253 µM,0.951
same,relative viability,NCI-H838; first compound 0.8 µM,1.18
same,relative viability,NCI-H838; first compound 2.53 µM,1.41
same,relative viability,ABC-1; first compound 0.08 µM,0.961
same,relative viability,ABC-1; first compound 0.253 µM,0.867
same,relative viability,ABC-1; first compound 0.8 µM,1.02
same,relative viability,ABC-1; first compound 2.53 µM,0.814
same,relative viability,NCI-H1395; first compound 0.08 µM,1.23
same,relative viability,NCI-H1395; first compound 0.253 µM,1.03
same,relative viability,NCI-H1395; first compound 0.8 µM,1.41
same,relative viability,NCI-H1395; first compound 2.53 µM,0.971
same,relative viability,NCI-H1666; first compound 0.08 µM,1
same,relative viability,NCI-H1666; first compound 0.253 µM,0.919
same,relative viability,NCI-H1666; first compound 0.8 µM,0.831
same,relative viability,NCI-H1666; first compound 2.53 µM,1.07
same,relative viability,NCI-H647; first compound 0.08 µM,1.19
same,relative viability,NCI-H647; first compound 0.253 µM,1.08
same,relative viability,NCI-H647; first compound 0.8 µM,1.05
same,relative viability,NCI-H647; first compound 2.53 µM,1.22
same,relative viability,NCI-H1993; first compound 0.08 µM,0.715
same,relative viability,NCI-H1993; first compound 0.253 µM,0.72
same,relative viability,NCI-H1993; first compound 0.8 µM,0.683
same,relative viability,NCI-H1993; first compound 2.53 µM,0.694
same,relative viability,NCI-H661; first compound 0.08 µM,0.419
same,relative viability,NCI-H661; first compound 0.253 µM,0.645
same,relative viability,NCI-H661; first compound 0.8 µM,0.76
same,relative viability,NCI-H661; first compound 2.53 µM,0.654
same,relative viability,CAL-12T; first compound 0.08 µM,1.2
same,relative viability,CAL-12T; first compound 0.253 µM,1.16
same,relative viability,CAL-12T; first compound 0.8 µM,1.2
same,relative viability,CAL-12T; first compound 2.53 µM,0.848
same,relative viability,COR-L23; first compound 0.08 µM,0.918
same,relative viability,COR-L23; first compound 0.253 µM,0.649
same,relative viability,COR-L23; first compound 0.8 µM,0.826
same,relative viability,COR-L23; first compound 2.53 µM,0.774
same,relative viability,201T; first compound 0.08 µM,1.07
same,relative viability,201T; first compound 0.253 µM,0.959
same,relative viability,201T; first compound 0.8 µM,1.01
same,relative viability,201T; first compound 2.53 µM,1.02
same,relative viability,NCI-H2347; first compound 0.08 µM,1.08
same,relative viability,NCI-H2347; first compound 0.253 µM,0.812
same,relative viability,NCI-H2347; first compound 0.8 µM,1.15
same,relative viability,NCI-H2347; first compound 2.53 µM,1.01
same,relative viability,NCI-H1355; first compound 0.08 µM,0.801
same,relative viability,NCI-H1355; first compound 0.253 µM,0.752
same,relative viability,NCI-H1355; first compound 0.8 µM,0.786
same,relative viability,NCI-H1355; first compound 2.53 µM,0.783
same,relative viability,NCI-H2170; first compound 0.08 µM,0.825
same,relative viability,NCI-H2170; first compound 0.253 µM,0.702
same,relative viability,NCI-H2170; first compound 0.8 µM,0.757
same,relative viability,NCI-H2170; first compound 2.53 µM,0.778
same,relative viability,NCI-H2228; first compound 0.08 µM,0.931
same,relative viability,NCI-H2228; first compound 0.253 µM,0.7
same,relative viability,NCI-H2228; first compound 0.8 µM,0.987
same,relative viability,NCI-H2228; first compound 2.53 µM,0.717
same,relative viability,LC-2-ad; first compound 0.08 µM,1.04
same,relative viability,LC-2-ad; first compound 0.8 µM,0.832
same,relative viability,LC-2-ad; first compound 2.53 µM,0.892
